Consider ten molecules from US8277807B2, “Pharmaceutical combinations” (Astex Therapeutics Limited, priority 2006, dated 2012).

Structures can show the parent of a compound that is named as a salt.

As a reminder, the IC50 is the midpoint of a concentration-inhibition curve. In general, Kd refers to the constant that tells how readily two partners part at equilibrium.

In one data set the test system is HCT116 cell line. The experiment in a line: Anti-proliferative activity, Alamar Blue assay. It is filed as cell-based. Conditions: Homo sapiens, HCT-116, 72 h, read-out: IC50 value against the HCT116 cell line. As for the experimental part: The anti-proliferative activities of compounds for use in the combinations of the invention can be determined by measuring the ability of the compounds to inhibition of cell growth in a number of cell lines such as the human colon cancer cell line HCT116. […] The method is based on the ability of viable cells to reduce resazurin to its fluorescent product resorufin. […] The number of viable cells is determined by Alamar Blue assay as before. Cell lines can be obtained from the ECACC (European Collection of cell Cultures).

The subject of another data set is PKA. Conditions: data published 2002; read-out: IC50, inhibition of PKA; cited from earlier work.
Another data set relates to PKG. Particulars: data published 2002; read-out: IC50, inhibition of PKG; cited from earlier work.
A further data set has as its system PKC. Conditions: data published 2002; read-out: IC50, inhibition of PKC; cited from earlier work.
The subject of another data set is OVCAR-3 tumour cells. Particulars: concentrations of 50 and 100 microM; PKB amplified; cited from earlier work.
Data set [1] in a line: Solid-state stability of L-lactate crystal forms (XRPD). It is filed as physicochemical. Conditions: in air; 40° C. and 75% RH where stated. An excerpt: Samples for X-ray powder diffraction (XRPD) data collection were gently ground by marble mortar and loaded into a crystallographic capillary (from Hampton Research, Quartz or Glass Type 10, 0.4 or 0.7 mm diameter). Diffraction patterns were collected at room temperature using CuKα radiation (λ=1.5418 Å) from a Rigaku rotating anode RU3HR, Osmic blue confocal optics, ¼ c goniometer and a Rigaku HTC image plate detector. 2D Images were collected while spinning φ axis with a detector to crystal distance of 250 mm. Data collection was controlled by CrystalClear software and 2D images were converted to 1D plot (20 vs. Intensity) by Datasqueeze (intensity averaged over the azimuthal angle 0<χ<360° for 2θ range 3-30° in 0.02° steps). In house program AstexXRPD was used for manipulation and visualisation of 1D XRPD patterns.

Data set [2] concerns P-glycoprotein-overexpressing subline of CCRF-CEM. Particulars: subline of leukemic cell line CCRF-CEM; Chou et al. 1998; read-out: IC50 against P-glycoprotein-overexpressing subline; cited from earlier work.
Another data set concerns APL patients. Particulars: in vivo; cited from earlier work.
Data set [3] in a line: Salt properties of the L-lactate of compound (1). The data set is classed as physicochemical.
Data set [4] has as its target T1, Human Hsp90α N-terminal domain (Homo sapiens, UniProt P07900).
T1 construct: Cloning, expression, and purification of the Human Hsp90α N-terminal domain were performed according to published methods; made in house
The experiment in a line: Isothermal titration calorimetry (ITC) binding to Hsp90. Particulars: 25 mM Tris, 100 mM NaCl, 1 mM MgCl2, 1 mM TCEP, 5% DMSO, pH 7.4. The protocol:
The ability of the compounds for use in the combinations of the invention to bind to human Hsp90 proteins was determined using isothermal titration calorimetry.
Isothermal titration calorimetry (ITC) experiments were performed with a VP-ITC titration calorimeter (Microcal Inc., Northampton, Mass., USA). […] All solutions were filtered and degassed prior to a titration being carried out. The enthalpy change resulting from each injection of ligand was obtained through integration of the calorimetric signal. Data were analysed using Origin 7.0 (Microcal Software Inc., Northampton, Mass.). Heats of dilution were estimated using the final injections of each individual titration and subtracted before data fitting. Different ITC experimental formats were employed in order to obtain compound dissociation constants (Kd's) over a wide range of affinities. […] In this type of experiment the stoichiometry parameter (N) was locked at 1 for data fitting.
(In general: In ITC the heat of successive injections is recorded.)

With `CC(C)c1cc(C(=O)N2Cc3ccc(C(=O)N4CCNCC4)cc3C2)c(O)cc1O` [Example 54, (2,4-dihydroxy-5-isopropyl-phenyl)-[5-(piperazine-1-carbonyl)-1,3-dihydro-isoindol-2-yl]-methanone hydrochloride], in the data set on HCT116 cell line, the IC50 is below 1 µM. Regarding `O=S(=O)(NCCNCC=C(c1ccccc1)c1ccccc1)c1cccc2cnccc12` [NL-71-101], the values for the IC50 in the data set on PKA, with PKG and in the data set on PKC were 9 µM, 36 µM and 104 µM, respectively. The “Apoptosis in OVCAR-3 tumour cells” value in the data set on OVCAR-3 tumour cells was “induced apoptosis”. `CC(C)c1cc(C(=O)N2Cc3ccccc3C2)c(O)cc1O` [Example 5, (1,3-Dihydro-1H-isoindol-2-yl)-(2,4-dihydroxy-5-isopropyl-phenyl)-methanone]: the IC50 in the data set on HCT116 cell line is below 1 µM.

Consider `CC(C)c1cc(C(=O)N2Cc3ccc(CN4CCN(C)CC4)cc3C2)c(O)cc1O.C[C@H](O)C(=O)O` [Form FL1, (2,4-dihydroxy-5-isopropyl-phenyl)-[5-(4-methyl-piperazin-1-ylmethyl)-1,3-dihydro-isoindol-2-yl]-methanone L-lactate], for which, in [1], the “stability of crystal form” value is “stable in air and at 40 °C and 75% RH for at least one month”. In the case of `C/C1=C/C[C@@H](/C(C)=C/c2csc(C)n2)OC(=O)C[C@H](O)C(C)(C)C(=O)[C@H](C)[C@@H](O)[C@@H](C)CCC1` [desoxyepothilone B], in [2], the IC50 was 0.017 µM. As to `CC(C)c1cc(C(=O)N2Cc3ccc(CN4CCN(C)CC4)cc3C2)c(O)cc1O.C[C@H](O)C(=O)O` [Form FL3, (2,4-dihydroxy-5-isopropyl-phenyl)-[5-(4-methyl-piperazin-1-ylmethyl)-1,3-dihydro-isoindol-2-yl]-methanone L-lactate], the “stability of crystal form” value in data set [1] is given as “transforms in air into form FL1”.

On to `CC1=C(/C=C/C(C)=C/C=C/C(C)=C/C(=O)O)C(C)(C)CCC1` [Tretinoin, all-trans retinoic acid], for which the “remissions in APL patients” value with APL patients is recorded as 64-100%.

Consider `CC(C)c1cc(C(=O)N2Cc3ccc(CN4CCN(C)CC4)cc3C2)c(O)cc1O.C[C@H](O)C(=O)O` [(2,4-dihydroxy-5-isopropyl-phenyl)-[5-(4-methyl-piperazin-1-ylmethyl)-1,3-dihydro-isoindol-2-yl]-methanone L-lactate salt], for which, in data set [3], the hygroscopicity entry was “non-hygroscopic”. Further, the rate of solubility entry in data set [3] (compared with free base and hydrochloric and sulphuric acid salts) was “better rate of solubility than the free base and other salts tested”.

`CC(C)c1cc(C(=O)N2Cc3ccc(CN4CCN(C)CC4)cc3C2)c(O)cc1O` [Example 55, (2,4-dihydroxy-5-isopropyl-phenyl)-[5-(4-methyl-piperazin-1-ylmethyl)-1,3-dihydro-isoindol-2-yl]-methanone]: the Kd in data set [4] is below 0.1 µM. Turning to `CC(C)c1cc(C(=O)N2Cc3ccc(CN4CCN(C)CC4)cc3C2)c(O)cc1O.C[C@H](O)C(=O)O` [form FL2, (2,4-dihydroxy-5-isopropyl-phenyl)-[5-(4-methyl-piperazin-1-ylmethyl)-1,3-dihydro-isoindol-2-yl]-methanone L-lactate], the “stability of crystal form” value in data set [1] was “stable in air”.
